From ChEMBL document CHEMBL5653627 (J Neurochem, 2017)
Active and inactive are the calls of the source. The calls are words filed in the database; no cut-off is given here.

Tests used:
GL261 [1] = assay: Cytotoxicity against mouse GL261 cells assessed as reduction in metabolic activity at 0.001 to 100 uM incubated for 72 hrs by MTT assay; type: functional, cell-based; conditions: dose 0.001-100 µM
SMA-497 [2] = assay: Cytotoxicity against mouse SMA-497 cells assessed as reduction in metabolic activity at 0.001 to 100 uM incubated for 72 hrs by MTT assay; type: functional, cell-based; conditions: dose 0.001-100 µM
GL261 [3] = assay: Anti-clonogenicic activity in mouse GL261 cells assessed as reduction in colony formation at 0.001 to 10 uM and measured after 10 days by MTT based clonogenic survival assay; type: functional, cell-based; conditions: dose 0.001-10 µM, time 10.0 day
SMA-540 [4] = assay: Anti-clonogenicic activity in mouse SMA-540 cells assessed as reduction in colony formation at 0.001 to 10 uM and measured after 10 days by MTT based clonogenic survival assay; type: functional, cell-based; conditions: dose 0.001-10 µM, time 10.0 day
SMA-560 [5] = assay: Induction of cell cycle arrest in mouse SMA-560 cells assessed as accumulation at G0/G1 phase at 0.1 uM incubated for 72 hrs by propidium iodide/RNase staining based flow cytomtery (Rvb= 71%); type: functional
SMA-560 [6] = assay: Induction of cell cycle arrest in mouse SMA-560 cells assessed as accumulation at sub G1 phase at 0.1 uM incubated for 72 hrs by propidium iodide/RNase staining based flow cytomtery (Rvb= 2%); type: functional
SMA-560 [7] = assay: Induction of apoptosis in mouse SMA-560 cells assessed as necrotic cells at 0.1 uM incubated for 72 hrs by Annexin V-FITC/PI staining based flow cytometric analysis (reference value: 13.5%); type: functional
SMA-560 [8] = assay: Induction of apoptosis in mouse SMA-560 cells assessed as early apoptotic cells at 0.1 uM incubated for 72 hrs by Annexin V-FITC/PI staining based flow cytometric analysis (reference value: 0.0056%); type: functional
SMA-497 [9] = assay: Anti-clonogenicic activity in mouse SMA-497 cells assessed as reduction in colony formation at 0.1 to 1 uM preincubated for 6 hrs followed by temozolomide addition and measured after 10 days by MTT based clonogenic survival assay; type: functional, cell-based; conditions: dose 0.1-1 µM, time 246.0 hrs
Mus musculus = assay: In vivo inhibition of Angiopoietin-1 stimulated TIE2 autophosphorylation in lungs of CB17/scid mouse at 25 to 100 mg/kg,po for 3 hrs with angiopoietin-1 stimulation during last 15 mins treatment by immunoblot analysis; type: functional, organism-based; conditions: Lung, dose 25-100 mg/kg
SMA-497 [10] = assay: In vivo inhibition of TIE-2 in VM/Dk mouse xenografted with mouse SMA-497 cells assessed as decrease in TIE-2 expression in brain blood vessels at 100 mg/kg,po daily by immunohistochemistry analysis; type: functional, organism-based
SMA-540 [11] = assay: In vivo inhibition of TIE-2 in VM/Dk mouse xenografted with mouse SMA-540 cells assessed as decrease in TIE-2 expression in brain blood vessels at 100 mg/kg,po daily by immunohistochemistry analysis; type: functional, organism-based
SMA-560 [12] = assay: In vivo inhibition of TIE-2 in VM/Dk mouse xenografted with mouse SMA-560 cells assessed as decrease in TIE-2 expression in brain blood vessels at 100 mg/kg,po daily by immunohistochemistry analysis; type: functional, organism-based
SMA-560 [13] = assay: Antitumor activity against mouse SMA-560 cells xenografted in VM/Dk mouse assessed as decrease in number of CD31-positive intra-tumoral vessels in tumor at 100 mg/kg,po daily by immunohistochemistry analysis; type: functional, organism-based
SMA-497 [14] = assay: Antitumor activity against mouse SMA-497 cells xenografted in VM/Dk mouse assessed as increase in number of tumor-infiltrating CD11b positive monocytes/microglia in tumor at 100 mg/kg,po daily by immunohistochemistry analysis; type: functional, organism-based
SMA-540 [15] = assay: Antitumor activity against mouse SMA-540 cells xenografted in VM/Dk mouse assessed as increase in number of tumor-infiltrating CD11b positive monocytes/microglia in tumor at 100 mg/kg,po daily by immunohistochemistry analysis; type: functional, organism-based
SMA-540 [16] = assay: Antitumor activity against mouse SMA-540 cells xenografted in VM/Dk mouse assessed as tumor cell proliferation at 100 mg/kg,po daily by Ki67 staining based immunohistochemistry analysis; type: functional, organism-based
SMA-497 [17] = assay: Antitumor activity against mouse SMA-497 cells xenografted in VM/Dk mouse assessed as decrease in tumor volume at 100 mg/kg,po daily by H and E staining based microscopy; type: functional, organism-based
SMA-560 [18] = assay: Antitumor activity against mouse SMA-560 cells xenografted in VM/Dk mouse assessed as decrease in tumor volume at 100 mg/kg,po daily by H and E staining based microscopy; type: functional, organism-based
[19] = Toxicity in VM/Dk mouse xenografted with mouse SMA-497 cells assessed as survival rate at 100 mg/kg,po daily (Rvb=14 to 15%); type: organism-based; conditions: in vivo
[20] = Toxicity in VM/Dk mouse xenografted with mouse SMA-560 cells assessed as survival rate at 100 mg/kg,po daily (Rvb=13 to 20%); type: organism-based; conditions: in vivo
SMA-497 [21] = assay: Antitumor activity against mouse SMA-497 cells xenografted in VM/Dk mouse assessed as decrease in number of CD31-positive intra-tumoral vessels in tumor at 100 mg/kg,po daily with 12 Gy irradition after 2days of treatment initiation by immunohistochemistry analysis; type: functional, organism-based
SMA-560 [22] = assay: Antitumor activity against mouse SMA-560 cells xenografted in VM/Dk mouse assessed as decrease in number of CD31-positive intra-tumoral vessels in tumor at 100 mg/kg,po daily with 12 Gy irradition after 2days of treatment initiation by immunohistochemistry analysis; type: functional, organism-based
SMA-560 [23] = assay: Antitumor activity against mouse SMA-560 cells xenografted in VM/Dk mouse assessed as increase in number of tumor-infiltrating CD11b positive monocytes/microglia in tumor at 100 mg/kg,po daily with 12 Gy irradition after 2days of treatment initiation by immunohistochemistry analysis; type: functional, organism-based
SMA-497 [24] = assay: Antitumor activity against mouse SMA-497 cells xenografted in VM/Dk mouse assessed as decrease in tumor cell proliferation at 100 mg/kg,po daily with 12 Gy irradition after 2days of treatment initiation by Ki67 staining based immunohistochemistry analysis; type: functional, organism-based
SMA-560 [25] = assay: Antitumor activity against mouse SMA-560 cells xenografted in VM/Dk mouse assessed as decrease in tumor volume at 100 mg/kg,po daily with 12 Gy irradition after 2days of treatment initiation by H and E staining based microscopy; type: functional, organism-based

Q: Which results are given for `Cc1cc(C)c(-n2ccn3nc(-c4cccnc4)cc23)cc1NC(=O)c1cc(C#N)cc(S(F)(F)(F)(F)F)c1` [BAY-826]?
A: Activity (GL261 [1]): inactive; Activity (SMA-497 [2]): inactive; Activity (GL261 [3]): inactive; Activity (SMA-540 [4]): inactive; Activity (SMA-560 [5]): 67%; Activity (SMA-560 [6]): 2%; Activity (SMA-560 [7]): 8.81%; Activity (SMA-560 [8]): 0%; Activity (SMA-497 [9]): inactive; inhibition (Mus musculus): Active; inhibition (SMA-497 [10]): Active; inhibition (SMA-540 [11]): Active; inhibition (SMA-560 [12]): Active; Activity (SMA-560 [13]): Active; Activity (SMA-497 [14]): Active; Activity (SMA-540 [15]): Active; Activity (SMA-540 [16]): inactive; Activity (SMA-497 [17]): inactive; Activity (SMA-560 [18]): inactive; Survival [19]: 17%; Survival [20]: 15%; Activity (SMA-497 [21]): Active; Activity (SMA-560 [22]): Active; Activity (SMA-560 [23]): Active; Activity (SMA-497 [24]): Active; Activity (SMA-560 [25]): Active
